Data on six molecules can be found in PMC9330653, “Targeting the Ubiquinol-Reduction (Qi) Site of the Mitochondrial Cytochrome bc1 Complex for the Development of Next Generation Quinolone Antimalarials” (Biology, 2022).

One data set deals with T1, bovine cytochrome bc1 (Bos taurus, UniProt P00157).
T1 construct: Crude mitochondria were isolated from fresh bovine hearts; from tissue; host or cells: bovine heart mitochondria
Briefly: Bovine cytochrome bc1 activity assay. It is filed as biochemical. The settings on record: triplicate. As for the experimental part:
Cytochrome bc1 was purified from mitochondria, as previously described. Crude mitochondria were isolated from fresh bovine hearts and solubilized with the addition of dodecyl-maltoside (DDM). The solubilized protein was loaded onto a 50 mL DEAE Sepharose CL6B (GE Healthcare, Uppsala, Sweden) column pre-equilibrated in and washed with three column volumes of 50 mM KPi pH 7.5, 250 mM NaCl, 0.5 mM EDTA, and 0.01% DDM. The bound protein was eluted along a linear gradient from 250 to 500 mM NaCl. Cytochrome bc1 fractions were pooled and concentrated in a centrifugal ultrafilter (MWCO. 100 kDa) and loaded onto a 120 mL Sephacryl S300 column (GE Healthcare, Uppsala, Sweden) equilibrated in and eluted at a flow rate of 0.5 mL/min with 20 mM KMOPS pH 7.2, 100 mM NaCl, 0.5 mM EDTA, 0.01% DDM. Cytochrome bc1 fractions were pooled and concentrated to 40 mg/mL. PEG fractionation with an increasing amount of PEG4000 was used to precipitate cytochrome bc1. […] The inhibitors were dissolved in DMSO at the concentration of 50 mM and 5 μM cytochrome bc1 was incubated with 50 μM inhibitor (10-fold molar excess) at 4 °C for 12 h.
The inhibitors were added to the assay without prior incubation. The reaction was initiated by the addition of 50 μM decylubiquinol (Sigma-Aldrich, St. Louis, MO, USA).

Data set [1] has as its system Plasmodium falciparum 3D7. The following applies: drug sensitive P. falciparum 3D7 whole cells; cited from earlier work.
Data set [2] deals with Plasmodium falciparum TM90C2B. The settings on record: atovaquone resistant parasite TM90C2B; cited from earlier work.
Data set [3] concerns the target PfNDH2 (P. falciparum mitochondrial type II NADH: ubiquinone oxidoreductase). The following applies: cited from earlier work.
The target in data set [4] is T2, Pfbc1 (P. falciparum cytochrome bc1) (Plasmodium falciparum, UniProt Q02768).
T2 sequence (Q02768 1-376): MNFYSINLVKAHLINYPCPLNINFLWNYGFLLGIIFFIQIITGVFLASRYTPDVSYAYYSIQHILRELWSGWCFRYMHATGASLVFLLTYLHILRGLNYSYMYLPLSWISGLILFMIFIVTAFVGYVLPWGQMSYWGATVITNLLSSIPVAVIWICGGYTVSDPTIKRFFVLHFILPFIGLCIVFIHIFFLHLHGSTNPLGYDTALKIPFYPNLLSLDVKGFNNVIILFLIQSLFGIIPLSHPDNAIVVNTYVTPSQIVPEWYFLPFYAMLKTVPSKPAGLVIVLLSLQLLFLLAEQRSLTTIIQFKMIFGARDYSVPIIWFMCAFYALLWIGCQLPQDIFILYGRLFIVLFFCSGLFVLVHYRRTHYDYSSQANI
The settings on record: cited from earlier work.

Data set [5] relates to Plasmodium falciparum FCR3A strain. Also on record: method as in PMID 23234553. The following applies: FCR3A strain used as atovaquone-resistant parasite (footnote †); read-out: IC50 (nM) (TM90C2B); cited from earlier work.
For data set [6], the target named is T2, Pfbc1 (P. falciparum cytochrome bc1). The data set can be described thus: Pf cytochrome bc1 enzyme inhibition. The format is biochemical. The settings on record: at 100 nM; single point concentration only, full IC50 not available; measured in this work. From the text: Table 1 Inhibition profiles of selected antimalarial compounds against whole cells of Plasmodium falciparum (Pf) (3D7 and TM90C2B strains) and individual mitochondrial enzymes. | column: IC50 (nM) (Pfbc1) *

On the set-up of data set [7]: method as in doi:10.1039/C5MD00062A. The settings on record: at pH 1; cited from earlier work.
The mark [8] stands for this setting: single point concentration only, full IC50 not available.

Values after ≈ are worked out from the molar mass of the structure shown. Like-named read-outs stand apart in the source and are kept apart here.

A word on the inhibition: it is the change of the read-out against control, counted positive when it falls. Higher therefore signals a strong effect. As usually defined, the IC50 is the midpoint of a concentration-inhibition curve. `Cc1c(-c2ccc(Cc3ccc(OC(F)(F)F)cc3)cc2)n(O)c2ccccc2c1=O` [RKA066] showed an inhibition at 0.1 µM at bovine cytochrome bc1 of 81 ± 4%. This molecule also showed an inhibition at 1 µM on bovine cytochrome bc1 of 93 ± 2%. Further, the half-inhibitory concentration (IC50) in data set [1] is 22 ± 0.4 nM; in data set [2], 217 ± 18 nM; in data set [3], 55 nM; in data set [4], 28 nM. The “IC50 (nM) (TM90C2B)” value in data set [2] is reported as “triple-digit nanomolar”.
For `Cc1[nH]c2ccccc2c(=O)c1-c1ccc(Cc2ccc(OC(F)(F)F)cc2)cc1` [WDH-1U-4], on bovine cytochrome bc1, the inhibition at 0.1 µM worked out at 7 ± 1%. This molecule also returned an inhibition at 1 µM on bovine cytochrome bc1 of 61 ± 3%. Further, the 50% inhibitory concentration (IC50) in data set [1] was 36 ± 6 nM; in data set [2], 5 ± 2 nM; in data set [3], 492 nM; in data set [4] it was under 10 nM.
On to `Cc1[nH]c(CO)c(-c2ccc(Oc3ccc(OC(F)(F)F)cc3)cc2)c(=O)c1Cl` [GSK932121], for which the inhibition at 0.1 µM against bovine cytochrome bc1 was found to be 65 ± 4%. The same molecule showed an inhibition at 1 µM against bovine cytochrome bc1 of 82 ± 5%. The IC50 in data set [1] is 6 nM; in data set [5] it was 6 nM; in data set [3] (setting [8]), over 10000 nM; in data set [4], 7 nM.
As a reminder, the aqueous solubility is the concentration that dissolves in the medium under given conditions. Regarding `COc1ccc2c(=O)c(C)c(-c3cncc(-c4ccc(OC(F)(F)F)cc4)c3)[nH]c2c1` [SCR0911], the inhibition at 0.1 µM turned out to be 80% in data set [6] and 9 ± 2% against bovine cytochrome bc1. Besides, the inhibition at 1 µM against bovine cytochrome bc1 came to 72 ± 5%. Further, the IC50 in data set [1] is 12 ± 3 nM; in data set [2], 7.2 nM; in data set [3] (setting [8]) it was over 1000 nM. Besides, the aqueous solubility in data set [7] was 7.8 µM (≈ 3.33 µg/mL).
With `COc1cc2[nH]c(C)c(-c3ccc(Oc4ccc(OC(F)(F)F)cc4)cc3)c(=O)c2cc1Cl` [ELQ300], the inhibition at 0.1 µM at bovine cytochrome bc1 was determined as 22 ± 5%. On bovine cytochrome bc1, testing at 1 µM gave an inhibition of 51 ± 7%. Further, the IC50 in data set [1] is 2.2 nM; in data set [2] it was 1.7 nM; in data set [4] it was 0.56 nM. Also, the aqueous solubility in data set [7] is reported as under 1 µM.
The molecule `Cc1[nH]c(C)c(-c2ccc(Oc3ccc(OC(F)(F)F)cc3)cc2)c(=O)c1Cl` [GW844520] registered an inhibition at 0.1 µM on bovine cytochrome bc1 of 59 ± 6%. The molecule further came in with an inhibition at 1 µM against bovine cytochrome bc1 of 79 ± 3%. Besides, the IC50 in data set [1] was 5 nM; in data set [5] it was 2 nM; in data set [3] (setting [8]), over 10000 nM; in data set [4] it was 2 nM.
